Paper PMC10997755, “Discovery of a small-molecule inhibitor that traps Polθ on DNA and synergizes with PARP inhibitors” (Nature Communications, 2024)
Values joined by “and” are separate entries in the source; they are usually repeats but may differ in a detail not shown here. Equal values may be shown once.

Assays:
DLD1 Parental cells = test: Clonogenic assay; assay type: cell-based; details: for Normalized colonies (0 micro M = 100): per experiment
Outline: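 Colony formation by BRCA-deficient, PALB2-mutant and wild-type cells (300–1000 cells/well) and MEFs (300 cells/well) over 10–12 days, medium changed every 2 days. Colonies fixed, stained with 0.5% crystal violet and counted; IC50 from 3 or more independent experiments.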

LogP = assay type: physicochemical; details: method not stated
DLD1 BRCA2 -/- cells = test: Clonogenic assay; assay type: cell-based; details: for Average number of colonies counted / Normalized colonies (0 micro M = 100): per experiment
Outline: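 Cells seeded at low density (300–1000 per well, by plate size and genotype), medium changed every 2 days, colonies grown 10–12 days. Fixed in water:ethanol:acetic acid, stained with 0.5% crystal violet, then counted; IC50 from ≥3 independent experiments, mean ± SEM.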

Polθ-pol = target: T1, Polθ-pol (Homo sapiens, UniProt O75417); test: Cy5 fluorescence Polθ-pol DNA synthesis (strand displacement) IC50 assay; assay type: biochemical; details: Polθ-pol DNA synthesis, Cy5 fluorescence
T1 construct: purified recombinant human Polθ-pol (comprising amino acid residues 1792–2590); made in house
T1 sequence (O75417 1792-2590): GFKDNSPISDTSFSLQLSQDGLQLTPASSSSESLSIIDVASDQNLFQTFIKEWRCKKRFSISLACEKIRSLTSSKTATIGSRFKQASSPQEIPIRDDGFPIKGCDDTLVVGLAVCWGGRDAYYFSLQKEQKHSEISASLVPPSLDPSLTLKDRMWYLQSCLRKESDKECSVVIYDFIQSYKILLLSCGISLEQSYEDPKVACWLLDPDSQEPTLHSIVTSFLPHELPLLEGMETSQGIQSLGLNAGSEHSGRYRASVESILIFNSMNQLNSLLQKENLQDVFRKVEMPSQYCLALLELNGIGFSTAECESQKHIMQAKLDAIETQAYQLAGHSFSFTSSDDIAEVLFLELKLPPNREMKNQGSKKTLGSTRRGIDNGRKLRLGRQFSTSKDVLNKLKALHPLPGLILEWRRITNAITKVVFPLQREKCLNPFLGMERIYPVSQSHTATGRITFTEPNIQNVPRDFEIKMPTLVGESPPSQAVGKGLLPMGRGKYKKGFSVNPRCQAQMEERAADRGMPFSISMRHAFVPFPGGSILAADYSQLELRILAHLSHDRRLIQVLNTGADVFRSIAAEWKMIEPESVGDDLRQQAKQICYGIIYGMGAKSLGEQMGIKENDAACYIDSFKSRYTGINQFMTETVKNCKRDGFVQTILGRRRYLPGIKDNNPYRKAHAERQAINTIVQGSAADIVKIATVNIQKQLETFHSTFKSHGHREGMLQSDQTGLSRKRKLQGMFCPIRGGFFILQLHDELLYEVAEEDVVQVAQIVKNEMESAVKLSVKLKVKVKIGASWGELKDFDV
Outline: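 Recombinant human Polθ-pol (aa 1792–2590, 5 nM) extends 60 nM Cy5/quencher primer-template with 50 uM dNTPs in 25 mM Tris pH 7.8, 10 mM MgCl2, 2.5% DMSO at 37 °C. After 18 min, stopped with 20 mM EDTA; Cy5 fluorescence read, 7-point series in triplicate, inhibition from the mean.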

CN(C(=O)Oc1c(N2CCN(CCO)C2=O)cc(C(F)(F)F)cc1C(F)(F)F)c1ccc(F)cc1 [RTx-161]
effect in BRCA2-WT cells (DLD1 Parental cells; DLD1, colony survival): little to no effect | Normalized colonies, pooled Average of 3 experiments (DLD1 Parental cells; RTX-161 0.185 micro M): 97.5686% | Normalized colonies (0 micro M = 100) (DLD1 Parental cells; RTX-161 0.185 micro M): 97.878% and 98.6301% and 96.1977% | Normalized colonies, pooled Average of 3 experiments (DLD1 Parental cells; RTX-161 0.555 micro M): 95.8582% | Normalized colonies (0 micro M = 100) (DLD1 Parental cells; RTX-161 0.555 micro M): 95.8175% and 96.5517% and 95.2055% | Normalized colonies, pooled Average of 3 experiments (DLD1 Parental cells; RTX-161 1.67 micro M): 94.2875% | Normalized colonies (0 micro M = 100) (DLD1 Parental cells; RTX-161 1.67 micro M): 93.5361% and 95.4907% and 93.8356% | Normalized colonies, pooled Average of 3 experiments (DLD1 Parental cells; RTX-161 5 micro M): 93.9179% | Normalized colonies (0 micro M = 100) (DLD1 Parental cells; RTX-161 5 micro M): 93.1559% and 96.817% and 91.7808% | Normalized colonies, pooled Average of 3 experiments (DLD1 Parental cells; RTX-161 15 micro M): 93.9599% | Normalized colonies (0 micro M = 100) (DLD1 Parental cells; RTX-161 15 micro M): 90.8745% and 94.4297% and 96.5753% | logP (LogP): 3.6 | IC50 (DLD1 BRCA2 -/- cells; Homo sapiens, DLD-1, read-out: IC50 clonogenic survival): ~1000 nM | Normalized colonies, pooled Average of 3 experiments (DLD1 BRCA2 -/- cells; RTX-161 0.185 micro M): 84.318% | Average number of colonies counted (DLD1 BRCA2 -/- cells; RTX-161 0.185 micro M): 67.3333 and 120 and 63.3333 | Normalized colonies (0 micro M = 100) (DLD1 BRCA2 -/- cells; RTX-161 0.185 micro M): 74.5387% and 90.4523% and 87.963% | Normalized colonies, pooled Average of 3 experiments (DLD1 BRCA2 -/- cells; RTX-161 0.555 micro M): 72.4221% | Average number of colonies counted (DLD1 BRCA2 -/- cells; RTX-161 0.555 micro M): 58.6667 and 97.6667 and 56.6667 | Normalized colonies (0 micro M = 100) (DLD1 BRCA2 -/- cells; RTX-161 0.555 micro M): 64.9446% and 73.6181% and 78.7037% | Normalized colonies, pooled Average of 3 experiments (DLD1 BRCA2 -/- cells; RTX-161 1.67 micro M): 40.9897% | Average number of colonies counted (DLD1 BRCA2 -/- cells; RTX-161 1.67 micro M): 28.3333 and 49.6667 and 39 | Normalized colonies (0 micro M = 100) (DLD1 BRCA2 -/- cells; RTX-161 1.67 micro M): 31.3653% and 37.4372% and 54.1667% | Normalized colonies, pooled Average of 3 experiments (DLD1 BRCA2 -/- cells; RTX-161 5 micro M): 19.5991% | Average number of colonies counted (DLD1 BRCA2 -/- cells; RTX-161 5 micro M): 11.6667 and 20.3333 and 22 | Normalized colonies, pooled Average of 3 experiments (DLD1 BRCA2 -/- cells; RTX-161 15 micro M): 11.8019% | selective killing / synthetic lethality in BRCA2-null DLD1 cells (DLD1 BRCA2 -/- cells; colony survival, versus BRCA2-WT): selective killing | IC50 (Polθ-pol): 4.1 nM and 4 to 6 nM
